Assay results reported in US8329904B2, “Azacyclic derivatives” (Hoffmann-La Roche Inc., priority 2009, dated 2012).

Molecular target: T1, human HSL (Homo sapiens, UniProt Q05469)
T1 construct: overlapping PCR to generate a full length human HSL ORF with a 3′-His6 tag; His6 (C); made in house; host or cells: High 5 insect cells (baculovirus, pFast-BAC)
T1 sequence (Q05469 1-1076): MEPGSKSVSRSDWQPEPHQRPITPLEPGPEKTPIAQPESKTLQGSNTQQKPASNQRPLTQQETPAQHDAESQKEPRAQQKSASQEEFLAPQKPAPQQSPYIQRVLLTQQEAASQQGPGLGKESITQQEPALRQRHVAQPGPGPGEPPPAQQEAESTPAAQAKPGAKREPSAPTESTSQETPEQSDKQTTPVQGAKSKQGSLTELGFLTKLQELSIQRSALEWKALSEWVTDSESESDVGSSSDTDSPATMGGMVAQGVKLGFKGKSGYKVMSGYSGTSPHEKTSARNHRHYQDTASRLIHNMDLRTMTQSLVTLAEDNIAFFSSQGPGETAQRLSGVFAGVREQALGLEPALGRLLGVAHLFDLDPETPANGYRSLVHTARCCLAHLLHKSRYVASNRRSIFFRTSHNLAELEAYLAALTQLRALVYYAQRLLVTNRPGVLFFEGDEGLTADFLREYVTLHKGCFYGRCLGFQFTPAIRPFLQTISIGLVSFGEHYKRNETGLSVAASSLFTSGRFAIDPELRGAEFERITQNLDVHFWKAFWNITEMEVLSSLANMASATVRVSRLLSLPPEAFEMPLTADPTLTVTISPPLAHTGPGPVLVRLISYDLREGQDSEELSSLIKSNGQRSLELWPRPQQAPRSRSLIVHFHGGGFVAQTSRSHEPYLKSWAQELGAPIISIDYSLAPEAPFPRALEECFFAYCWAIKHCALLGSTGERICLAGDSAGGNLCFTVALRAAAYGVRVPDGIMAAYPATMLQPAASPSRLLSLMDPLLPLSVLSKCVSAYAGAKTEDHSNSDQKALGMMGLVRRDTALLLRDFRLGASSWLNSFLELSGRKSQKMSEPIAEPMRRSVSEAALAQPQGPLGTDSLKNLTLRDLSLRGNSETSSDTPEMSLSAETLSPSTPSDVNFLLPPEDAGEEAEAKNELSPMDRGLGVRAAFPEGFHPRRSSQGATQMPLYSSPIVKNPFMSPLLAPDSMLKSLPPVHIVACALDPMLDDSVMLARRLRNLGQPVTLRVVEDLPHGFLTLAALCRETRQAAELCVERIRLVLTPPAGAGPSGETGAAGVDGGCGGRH
Test: Human Hormone-Sensitive Lipase (HSL) Enzyme Inhibition Assay
Type: biochemical
Details: colorimetric assay, 2,3-dimercapto-1-propanol tributyrate (DMPT) substrate, 37° C. for 20 minutes, absorbance at 405 nm; read-out: HSL hum IC50
In short: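 Colorimetric thioester hydrolysis: compounds in DMSO series mixed with DMPT (1.5 mM) in MOPS pH 7.2 with BSA, then baculovirus-expressed His6-tagged full-length human HSL added, 37° C, 20 min. DTNB plus detergents added, 15 min room temperature, absorbance at 405 nm.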

Row | IC50 [nM] | Compound
1 | 60 | O=C1N(c2ccc(OC(F)(F)F)cc2)CCC12CCN(S(=O)(=O)CC1(O)CCCC1)CC2 [Example 210, 8-(1-Hydroxy-cyclopentylmethanesulfonyl)-2-(4-trifluoromethoxy-phenyl)-2,8-diaza-spiro[4.5]decan-1-one]
2 | 130 | COC1(CS(=O)(=O)N2CCC3(CCN(c4ccc(OC(F)(F)F)cc4)C3=O)CC2)CCCC1 [Example 211, 8-(1-Methoxy-cyclopentylmethanesulfonyl)-2-(4-trifluoromethoxy-phenyl)-2,8-diaza-spiro[4.5]decan-1-one]
3 | 200 | CC(C)(O)CS(=O)(=O)N1CCC2(CCN(c3ccc(OC(F)(F)F)cc3)C2=O)CC1 [Example 212, 8-(2-Hydroxy-2-methyl-propane-1-sulfonyl)-2-(4-trifluoromethoxy-phenyl)-2,8-diaza-spiro[4.5]decan-1-one]
4 | 150 | O=C1N(c2ccc(OC(F)(F)F)cc2)CCC12CCN(S(=O)(=O)/C=C1/CCCO1)CC2 [Example 213, 8-[Dihydro-furan-(2Z)-ylidenemethanesulfonyl]-2-(4-trifluoromethoxy-phenyl)-2,8-diaza-spiro[4.5]decan-1-one]
5 | 100 | O=C1N(c2ccc(OC(F)(F)F)cc2)CCC12CCN(S(=O)(=O)CC1CCCO1)CC2 (stereo not drawn) [Example 214, 8-(Tetrahydro-furan-2-ylmethanesulfonyl)-2-(4-trifluoromethoxy-phenyl)-2,8-diaza-spiro[4.5]decan-1-one]
6 | 470 | CCC(C)(O)CC(=O)N1CCC2(CC1)CCN(c1ccc(OC(F)(F)F)cc1)C2=O (stereo not drawn) [Example 215, 8-(3-Hydroxy-3-methyl-pentanoyl)-2-(4-trifluoromethoxy-phenyl)-2,8-diaza-spiro[4.5]decan-1-one]
7 | 250 | O=C(CC1CCC1)N1CCC2(CC1)CCN(c1ccc(OC(F)(F)F)cc1)C2=O [Example 216, 8-(2-Cyclobutyl-acetyl)-2-(4-trifluoromethoxy-phenyl)-2,8-diaza-spiro[4.5]decan-1-one]
8 | 220 | CC(C)OCC(=O)N1CCC2(CC1)CCN(c1ccc(OC(F)(F)F)cc1)C2=O [Example 217, 8-(2-Isopropoxy-acetyl)-2-(4-trifluoromethoxy-phenyl)-2,8-diaza-spiro[4.5]decan-1-one]
9 | 280 | O=C(N1CCC2(CC1)CCN(c1ccc(OC(F)(F)F)cc1)C2=O)C1(O)CC1 [Example 219, 8-(1-Hydroxy-cyclopropanecarbonyl)-2-(4-trifluoromethoxy-phenyl)-2,8-diaza-spiro[4.5]decan-1-one]
10 | 80 | O=C(COCc1ccccc1)N1CCC2(CC1)CCN(c1ccc(OC(F)(F)F)cc1)C2=O [Example 220, 8-(2-Benzyloxy-acetyl)-2-(4-trifluoromethoxy-phenyl)-2,8-diaza-spiro[4.5]decan-1-one]
11 | 60 | O=C(COc1ccccc1)N1CCC2(CC1)CCN(c1ccc(OC(F)(F)F)cc1)C2=O [Example 221, 8-(2-Phenoxy-acetyl)-2-(4-trifluoromethoxy-phenyl)-2,8-diaza-spiro[4.5]decan-1-one]
12 | 100 | CC(C(=O)N1CCC2(CC1)CCN(c1ccc(OC(F)(F)F)cc1)C2=O)c1ccccc1 (stereo not drawn) [Example 222, 8-(2-Phenyl-propionyl)-2-(4-trifluoromethoxy-phenyl)-2,8-diaza-spiro[4.5]decan-1-one]
13 | 110 | CCC(C(=O)N1CCC2(CC1)CCN(c1ccc(OC(F)(F)F)cc1)C2=O)c1ccccc1 (stereo not drawn) [Example 223, 8-(2-Phenyl-butyryl)-2-(4-trifluoromethoxy-phenyl)-2,8-diaza-spiro[4.5]decan-1-one]
14 | 820 | Cc1nc(C(=O)N2CCC3(CC2)CCN(c2ccc(OC(F)(F)F)cc2)C3=O)cs1 [Example 224, 8-(2-Methyl-thiazole-4-carbonyl)-2-(4-trifluoromethoxy-phenyl)-2,8-diaza-spiro[4.5]decan-1-one]
15 | 320 | O=C(CCl)N1CCC2(CC1)CCN(c1ccc(OC(F)(F)F)cc1)C2=O [Example 225, 8-(2-Chloro-acetyl)-2-(4-trifluoromethoxy-phenyl)-2,8-diaza-spiro[4.5]decan-1-one]
16 | 50 | O=C(COC1CCCC1)N1CCC2(CC1)CCN(c1ccc(OC(F)(F)F)cc1)C2=O [Example 226, 8-(2-Cyclopentyloxy-acetyl)-2-(4-trifluoromethoxy-phenyl)-2,8-diaza-spiro[4.5]decan-1-one]
17 | 80 | O=C1N(c2ccc(C(F)(F)F)c(Cl)c2)CCC12CCN(S(=O)(=O)c1ccccc1Cl)CC2 [Example 227, 8-(2-Chloro-benzenesulfonyl)-2-(3-chloro-4-trifluoromethyl-phenyl)-2,8-diaza-spiro[4.5]decan-1-one]
18 | 60 | O=C1N(c2ccc3c(c2)OC(F)(F)O3)CCC12CCN(S(=O)(=O)c1ccccc1Cl)CC2 [Example 228, 8-(2-Chloro-benzenesulfonyl)-2-(2,2-difluoro-benzo[1,3]-dioxol-5-yl)-2,8-diaza-spiro[4.5]decan-1-one]
19 | 240 | O=C1N(c2ccc(C3(O)COC3)cc2)CCC12CCN(S(=O)(=O)c1ccccc1Cl)CC2 [Example 229, 8-(2-Chloro-benzenesulfonyl)-2-[4-(3-hydroxy-oxetan-3-yl)-phenyl]-2,8-diaza-spiro[4.5]decan-1-one]
20 | 30 | O=C1N(c2ccc(C3(F)COC3)cc2)CCC12CCN(S(=O)(=O)c1ccccc1Cl)CC2 [Example 230, 8-(2-Chloro-benzenesulfonyl)-2-[4-(3-fluoro-oxetan-3-yl)-phenyl]-2,8-diaza-spiro[4.5]decan-1-one]
21 | 20 | O=C1N(c2ccc(C3(O)CCC3)cc2)CCC12CCN(S(=O)(=O)c1ccccc1Cl)CC2 [Example 231, 8-(2-Chloro-benzenesulfonyl)-2-[4-(1-hydroxy-cyclobutyl)-phenyl]-2,8-diaza-spiro[4.5]decan-1-one]
22 | 90 | Cc1cc(CS(=O)(=O)N2CCC3(CCN(c4ccc(OC(F)(F)F)cc4)C3=O)CC2)no1 [Example 232, 8-(5-Methyl-isoxazol-3-ylmethanesulfonyl)-2-(4-trifluoromethoxy-phenyl)-2,8-diaza-spiro[4.5]decan-1-one]
23 | 200 | CC(C)c1cc(CS(=O)(=O)N2CCC3(CCN(c4ccc(OC(F)(F)F)cc4)C3=O)CC2)on1 [Example 233, 8-(3-Isopropyl-isoxazol-5-ylmethanesulfonyl)-2-(4-trifluoromethoxy-phenyl)-2,8-diaza-spiro[4.5]decan-1-one]
24 | 150 | COC(=O)c1cccc(C)c1S(=O)(=O)N1CCC2(CCN(c3ccc(OC(F)(F)F)cc3)C2=O)CC1 [Example 234, 3-Methyl-2-[1-oxo-2-(4-trifluoromethoxy-phenyl)-2,8-diaza-spiro[4.5]decane-8-sulfonyl]-benzoic acid methyl ester]
25 | 400 | O=C1N(Cc2cccc(Cl)c2)CCC12CCN(S(=O)(=O)c1ccccc1Cl)CC2 [Example 235, 8-(2-Chloro-benzenesulfonyl)-2-(3-chloro-benzyl)-2,8-diaza-spiro[4.5]decan-1-one]
26 | 50 | O=C1N(CCc2ccccc2)CCC12CCN(S(=O)(=O)c1ccccc1Cl)CC2 [Example 236, 8-(2-Chloro-benzenesulfonyl)-2-phenethyl-2,8-diaza-spiro[4.5]decan-1-one]
27 | 40 | CCc1ccc(CCN2CCC3(CCN(S(=O)(=O)c4ccccc4Cl)CC3)C2=O)cc1 [Example 237, 8-(2-Chloro-benzenesulfonyl)-2-[2-(4-ethyl-phenyl)-ethyl]-2,8-diaza-spiro[4.5]decan-1-one]
28 | 100 | CC(C)(C)c1ccc(CCN2CCC3(CCN(S(=O)(=O)c4ccccc4Cl)CC3)C2=O)cc1 [Example 238, 2-[2-(4-tert-Butyl-phenyl)-ethyl]-8-(2-chloro-benzenesulfonyl)-2,8-diaza-spiro[4.5]decan-1-one]
29 | 60 | O=C1N(CCc2ccc(F)cc2)CCC12CCN(S(=O)(=O)c1ccccc1Cl)CC2 [Example 239, 8-(2-Chloro-benzenesulfonyl)-2-[2-(4-fluoro-phenyl)-ethyl]-2,8-diaza-spiro[4.5]decan-1-one]

Row | Compound | IC50 [nM]
30 | CC(C)(C)OCC(=O)N1CCC2(CC1)CCN(c1ccc(OC(F)(F)F)cc1)C2=O [Example 218, 8-(2-tert-Butoxy-acetyl)-2-(4-trifluoromethoxy-phenyl)-2,8-diaza-spiro[4.5]decan-1-one] | 100
